From patent US20080095720A1, “Skin Benefit Compositions with a Vanilloid Receptor Antagonist” (CONOPCO, INC., D/B/A UNILEVER, priority 2006, published 2008)

Molecular target: T1, vanilloid receptor TRP-V1, VR-1 (Homo sapiens, UniProt Q8NER1)
T1 construct: endogenous in cells; host or cells: HaCaT keratinocytes
Assay: Interleukin-1α production in HaCaT keratinocytes treated with capsaicin with or without capsazepine
Type: cell-based
Procedure: Keratinocyte cell lines (HaCaT) were treated with about 1 μM capsaicin (an agonist of vanilloid receptor TRP-V1, VR-1). […] Antagonists of TRP-V1 are thereby expected to be a route to reduce inflammation in the skin when the same is subjected to an irritant.

T1 sequence (Q8NER1 whole entry): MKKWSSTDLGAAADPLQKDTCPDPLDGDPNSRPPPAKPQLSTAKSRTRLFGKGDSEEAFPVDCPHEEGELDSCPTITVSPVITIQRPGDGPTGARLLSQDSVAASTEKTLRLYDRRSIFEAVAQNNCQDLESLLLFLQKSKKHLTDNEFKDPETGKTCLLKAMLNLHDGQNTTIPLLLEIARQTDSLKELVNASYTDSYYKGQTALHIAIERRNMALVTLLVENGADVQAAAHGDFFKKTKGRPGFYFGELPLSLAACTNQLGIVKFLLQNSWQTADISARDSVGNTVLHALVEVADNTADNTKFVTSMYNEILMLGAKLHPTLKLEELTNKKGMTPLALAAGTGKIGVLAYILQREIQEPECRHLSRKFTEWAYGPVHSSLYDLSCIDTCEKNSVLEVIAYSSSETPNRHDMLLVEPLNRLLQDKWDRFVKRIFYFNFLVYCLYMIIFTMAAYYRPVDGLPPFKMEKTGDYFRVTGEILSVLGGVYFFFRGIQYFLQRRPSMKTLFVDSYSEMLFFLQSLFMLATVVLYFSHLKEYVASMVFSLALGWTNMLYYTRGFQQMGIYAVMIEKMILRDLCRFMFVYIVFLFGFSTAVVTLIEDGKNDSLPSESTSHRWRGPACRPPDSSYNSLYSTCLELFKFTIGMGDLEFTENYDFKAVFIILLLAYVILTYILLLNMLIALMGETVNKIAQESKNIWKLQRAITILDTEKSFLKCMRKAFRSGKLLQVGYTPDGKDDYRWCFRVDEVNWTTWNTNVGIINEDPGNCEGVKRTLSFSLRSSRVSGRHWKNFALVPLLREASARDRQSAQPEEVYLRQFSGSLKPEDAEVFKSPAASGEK

Row | SMILES | interleukin-1α increase in response to capsaicin (HaCaT keratinocytes, capsaicin (1 μM) in the presence of about 3 μM capsazepine) | interleukin-1α levels (HaCaT keratinocytes, capsazepine alone) | production of interleukin-1α (HaCaT keratinocyte cell lines, about 1 μM capsaicin, p<0.001)
1 | Oc1cc2c(cc1O)CN(C(=S)NCCc1ccc(Cl)cc1)CCC2 [capsazepine] | blocked the interleukin-1α increase | no effect | 
2 | COc1cc(CNC(=O)CCCC/C=C/C(C)C)ccc1O [capsaicin] |  |  | significant increase
